Data from the NIST ThermoML archive (doi:10.1021/je900311v).
± gives the expanded uncertainty stated by the source.

Legend:
[1] = 298.15 K; 101.33 kPa; Liquid
[2] = excess molar enthalpy (molar enthalpy of mixing); xn = mol fraction of the nth substance listed; conditions: 298.15 K, 101 kPa, Liquid, Calvet calorimetry

CCCCCCC(C)=O [2-octanone]
Conditions	mass density [kg/m3]
[1]	814.28 ± 0.55

CCCCCCC(C)=O [2-octanone] + CCCCCCCCCCCC
[2]
Conditions	excess molar enthalpy [kJ/mol]
x1 = 0.035	0.191 ± 0.003
x1 = 0.0677	0.344 ± 0.0047
x1 = 0.0982	0.466 ± 0.0062
x1 = 0.1267	0.569 ± 0.0074
x1 = 0.1564	0.664 ± 0.0086
x1 = 0.1841	0.742 ± 0.0095
x1 = 0.2101	0.806 ± 0.01
x1 = 0.2345	0.858 ± 0.011
x1 = 0.2613	0.908 ± 0.012
x1 = 0.2862	0.948 ± 0.012
x1 = 0.3096	0.979 ± 0.012
x1 = 0.3314	1.01 ± 0.013
x1 = 0.3519	1.02 ± 0.013
x1 = 0.3712	1.04 ± 0.013
x1 = 0.3931	1.05 ± 0.013
x1 = 0.4135	1.06 ± 0.013
x1 = 0.4325	1.07 ± 0.013
x1 = 0.4499	1.07 ± 0.013
x1 = 0.4504	1.07 ± 0.013
x1 = 0.4596	1.07 ± 0.013
x1 = 0.4698	1.07 ± 0.013
x1 = 0.4804	1.07 ± 0.013
x1 = 0.4915	1.07 ± 0.013
x1 = 0.5031	1.07 ± 0.013
x1 = 0.5138	1.07 ± 0.013
x1 = 0.525	1.06 ± 0.013
x1 = 0.5366	1.06 ± 0.013
x1 = 0.5488	1.05 ± 0.013
x1 = 0.5615	1.04 ± 0.013
x1 = 0.5749	1.03 ± 0.013
x1 = 0.5866	1.02 ± 0.013
x1 = 0.5986	1.01 ± 0.013
x1 = 0.6133	0.998 ± 0.013
x1 = 0.6244	0.984 ± 0.013
x1 = 0.6381	0.967 ± 0.012
x1 = 0.6525	0.948 ± 0.012
x1 = 0.6658	0.929 ± 0.012
x1 = 0.6795	0.909 ± 0.012
x1 = 0.6938	0.886 ± 0.011
x1 = 0.7072	0.863 ± 0.011
x1 = 0.721	0.836 ± 0.011
x1 = 0.7355	0.808 ± 0.01
x1 = 0.7505	0.776 ± 0.0099
x1 = 0.7661	0.743 ± 0.0095
x1 = 0.7808	0.71 ± 0.0091
x1 = 0.7961	0.673 ± 0.0087
x1 = 0.812	0.633 ± 0.0082
x1 = 0.8265	0.596 ± 0.0078
x1 = 0.8414	0.555 ± 0.0072
x1 = 0.857	0.51 ± 0.0067
x1 = 0.873	0.462 ± 0.0061
x1 = 0.8877	0.416 ± 0.0056
x1 = 0.9032	0.366 ± 0.005
x1 = 0.9191	0.312 ± 0.0043
x1 = 0.9356	0.254 ± 0.0036
x1 = 0.9509	0.197 ± 0.003
x1 = 0.9667	0.137 ± 0.0023
x1 = 0.9831	0.0699 ± 0.0016
